Source: ChEMBL document CHEMBL1201862, “PubChem BioAssay data set” (2004)
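Results reflect a 48-hour exposure of cells in 96-well plates to compound at five concentrations. GI50 is the concentration that inhibits growth by half.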 Calls of active or inactive are those of the source. Rule as the data show it: active = GI50 up to about 1.1 µM and inactive = higher.

Legend:
Experiment in all cases: NCI tumour cell line growth inhibition, 48 h
786-0 = test system: 786-0
A498 = test system: A498
A549 = test system: A549
ACHN = test system: ACHN
BT-549 = test system: BT-549
CAKI-1 = test system: CAKI-1
CCRF-CEM = test system: CCRF-CEM
COLO 205 = test system: COLO 205
DU-145 = test system: DU-145
EKVX = test system: EKVX
HCC 2998 = test system: HCC 2998
HCT-116 = test system: HCT-116
HCT-15 = test system: HCT-15
HL-60 = test system: HL-60
HOP-62 = test system: HOP-62
HOP-92 = test system: HOP-92
HT-29 = test system: HT-29
Hs-578T = test system: Hs-578T
IGROV-1 = test system: IGROV-1
K562 = test system: K562
KM12 = test system: KM12
M14 = test system: M14
MCF7 = test system: MCF7
MDA-MB-231 = test system: MDA-MB-231
MDA-MB-435 = test system: MDA-MB-435
MDA-N = test system: MDA-N
MOLT-4 = test system: MOLT-4
Malme-3M = test system: Malme-3M
NCI-H226 = test system: NCI-H226
NCI-H23 = test system: NCI-H23
NCI-H460 = test system: NCI-H460
NCI-H522 = test system: NCI-H522
NCI/ADR-RES = test system: NCI/ADR-RES
OVCAR-3 = test system: OVCAR-3
OVCAR-4 = test system: OVCAR-4
OVCAR-5 = test system: OVCAR-5
OVCAR-8 = test system: OVCAR-8
PC-3 = test system: PC-3
RPMI-8226 = test system: RPMI-8226
RXF 393 = test system: RXF 393
SF-268 = test system: SF-268
SF-295 = test system: SF-295
SF-539 = test system: SF-539
SK-MEL-28 = test system: SK-MEL-28
SK-MEL-2 = test system: SK-MEL-2
SK-MEL-5 = test system: SK-MEL-5
SK-OV-3 = test system: SK-OV-3
SN12C = test system: SN12C
SNB-19 = test system: SNB-19
SNB-75 = test system: SNB-75
SR = test system: SR
SW-620 = test system: SW-620
T47D = test system: T47D
TK-10 = test system: TK-10
U-251 = test system: U-251
UACC-257 = test system: UACC-257
UACC-62 = test system: UACC-62
UO-31 = test system: UO-31

O=C(O)c1cnc2cc(OCc3ccccc3)ccc2c1O
GI50 (786-0): 18.5 µM (inactive) | GI50 (A498): 17.6 µM (inactive) | GI50 (A549): 19.5 µM (inactive) | GI50 (ACHN): 18.5 µM (inactive) | GI50 (BT-549): 18.4 µM (inactive) | GI50 (CAKI-1): 20.2 µM (inactive) | GI50 (CCRF-CEM): 5.37 µM (inactive) | GI50 (COLO 205): 18.2 µM (inactive) | GI50 (DU-145): 18 µM (inactive) | GI50 (EKVX): 22.8 µM (inactive) | GI50 (HCC 2998): 18.3 µM (inactive) | GI50 (HCT-116): 17.2 µM (inactive) | GI50 (HCT-15): 17.8 µM | GI50 (HL-60): 0.256 µM (active) | GI50 (HOP-62): 20.7 µM (inactive) | GI50 (HOP-92): 19.4 µM (inactive) | GI50 (HT-29): 19.2 µM (inactive) | GI50 (Hs-578T): 20 µM (inactive) | GI50 (IGROV-1): 18.3 µM (inactive) | GI50 (K562): 23.6 µM (inactive) | GI50 (KM12): 18.5 µM (inactive) | GI50 (M14): 17 µM (inactive) | GI50 (MCF7): 20.1 µM (inactive) | GI50 (MDA-MB-231): 20.6 µM (inactive) | GI50 (MDA-MB-435): 16.2 µM (inactive) | GI50 (MDA-N): 17 µM (inactive) | GI50 (MOLT-4): 31.2 µM (inactive) | GI50 (Malme-3M): 13.8 µM (inactive) | GI50 (NCI-H226): 18.3 µM (inactive) | GI50 (NCI-H23): 17.9 µM (inactive) | GI50 (NCI-H460): 19.4 µM (inactive) | GI50 (NCI-H522): 16.5 µM (inactive) | GI50 (NCI/ADR-RES): 18.1 µM (inactive) | GI50 (OVCAR-3): 20.7 µM (inactive) | GI50 (OVCAR-4): 16.6 µM (inactive) | GI50 (OVCAR-5): 27.3 µM (inactive) | GI50 (OVCAR-8): 19 µM (inactive) | GI50 (PC-3): 17.1 µM (inactive) | GI50 (RPMI-8226): 24.8 µM (inactive) | GI50 (RXF 393): 18.3 µM (inactive) | GI50 (SF-268): 16 µM (inactive) | GI50 (SF-295): 19.3 µM (inactive) | GI50 (SF-539): 19 µM (inactive) | GI50 (SK-MEL-28): 16 µM (inactive) | GI50 (SK-MEL-2): 18.5 µM (inactive) | GI50 (SK-MEL-5): 17.7 µM (inactive) | GI50 (SK-OV-3): 22.1 µM (inactive) | GI50 (SN12C): 18.2 µM (inactive) | GI50 (SNB-19): 17.7 µM (inactive) | GI50 (SNB-75): 15.7 µM (inactive) | GI50 (SR): 23 µM (inactive) | GI50 (SW-620): 19.2 µM (inactive) | GI50 (T47D): 17.8 µM (inactive) | GI50 (TK-10): 19.9 µM (inactive) | GI50 (U-251): 18.6 µM (inactive) | GI50 (UACC-257): 24 µM (inactive) | GI50 (UACC-62): 16.8 µM (inactive) | GI50 (UO-31): 17.3 µM (inactive)
